Assay [1] concerns the target Ubiquitin-conjugating enzyme E2 N/Ubiquitin-conjugating enzyme E2 variant 1 (Homo sapiens, UniProt P61088+Q13404). Nature of the assay: (§1) Inhibition of human Ubc13-Uev1A interaction expressed in Escherichia BL21 after 15 mins by ELISA.
The target in assay [2] is Ubiquitin-conjugating enzyme E2 N/Ubiquitin-conjugating enzyme E2 variant 1 (Homo sapiens) (UniProt Q13404+P61088). Described as §1.
For assay [3], the target named is T1, Ubiquitin-conjugating enzyme E2 N (Homo sapiens) (UniProt P61088).
T1 sequence (whole entry): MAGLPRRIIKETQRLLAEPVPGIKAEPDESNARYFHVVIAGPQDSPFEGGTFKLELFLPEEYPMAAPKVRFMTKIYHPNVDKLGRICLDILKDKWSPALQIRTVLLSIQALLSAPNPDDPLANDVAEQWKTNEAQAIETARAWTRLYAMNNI
Put plainly: Inhibition of Ubc13-[…] interaction by ELISA.

The text below walks through data of ChEMBL document CHEMBL1152207, “Leucettamol A: a new inhibitor of Ubc13-Uev1A interaction isolated from a marine sponge, Leucetta aff. microrhaphis” (Bioorg Med Chem Lett, 2008).

Broadly, the IC50 is the point on the concentration scale where inhibition reaches its midpoint. Low values mean greater potency, high ones weaker potency.

Structures are written as SMILES. The source made the active and inactive calls. The rule behind the calls is not given here.

Consider `C[C@@H](N)[C@@H](O)CCCCCCCCCCCCCCCCCCCCCCCC[C@H](O)[C@@H](C)N`, for which the IC50 in assay [1] was 8.25 µM.
For `CC(=O)N[C@H](C)[C@H](C/C=C\C/C=C\C/C=C\C/C=C\C/C=C\C/C=C\CCCCCC[C@H](OC(C)=O)[C@@H](C)NC(C)=O)OC(C)=O`, the result in assay [2] was inactive.
`C[C@@H](N)[C@@H](O)C/C=C\C/C=C\C/C=C\C/C=C\C/C=C\C/C=C\CCCCCC[C@H](O)[C@@H](C)N` [LEUCETTAMOL A] gave an IC50 in assay [1] of 106 µM. The outcome in assay [3] was inactive.
